4 compounds from patent US20070191324A1, “Methods for treatment or prophylaxis of aldosterone-mediated pathogenic effects in a subject using an epoxy-steroidal aldosterone antagonist” (priority 1999, published 2007) can be followed below.

Series [1] has as its system uninephrectomized rats given 1% NaCl and aldosterone infusion. Briefly: Volume expanded hypertensive rats, telemetry (Example A-4). It counts as in vivo. The settings on record: 24 h average after three weeks.
Series [2] deals with saline-loaded adrenalectomized rats treated with aldosterone. Put plainly: Subcutaneous vs. oral eplerenone in saline-loaded adrenalectomized rats treated with aldosterone (Example A-3). It counts as in vivo. The method, then: Urinary sodium, potassium and water excretion were measured. The results are expressed as the ratio of excreted urinary sodium to potassium (Na/K)±SEM.

The test system of series [3] is saline-hydrated conscious dogs treated with aldosterone. Briefly: Antimineralocorticoid action in saline-hydrated conscious dogs treated with aldosterone (Example A-2). It counts as in vivo. To be noted: aldosterone i.v. infusion; antagonist 10 mg/kg orally.
Series [4] deals with L-NAME/Angiotensin II/NaCl-treated rats. Briefly: L-NAME/Angiotensin II/NaCl model of cardiac and renal injury (Example A-1). It counts as in vivo, Male Wistar rats. To be noted: Epl 100 mg/kg/day p.o., ALDO 40 μg/kg/day in adrenalectomized rats. On the procedure:
Animals. Male Wistar rats (n=44), weighing 200 to 225 grams, and obtained from Charles River Laboratories (Wilmington, Mass.) were used in the study. All animals were housed in a room lighted 12 hours per day at an ambient temperature of 22±1° C. Animals were allowed one week to recover after arrival and had free access to Purina Lab Chow 5001 (Ralston Purina Inc, St. Louis, Mo.) and tap water until the initiation of the experiment. After initiation of the protocols, animals in all groups were placed in individual metabolic cages, handled and weighed daily. Twenty-four hour fluid intake, food intake and urine output were measured daily. […] On day 14 of L-NAME treatment, animals were decapitated, trunk blood was collected into chilled tubes containing ethylene diamine tetraacetic acid and the heart and kidneys were removed, blotted dry and immediately weighed. […] Drugs. Eplerenone was supplied by G.D. Searle Pharmaceuticals (St. […] Dexamethasone was dissolved in sesame oil and administered as a single subcutaneous dose (12 μg/kg/day) every day. This dose of dexamethasone has been reported to, maintain normal weight gain, glomerular filtration rate, and fasting plasma glucose and insulin levels in adrenalectomized rats. Stanton, B., Giebisch G et al. J. Clin. Invest 1985 75:1317-1326. The experiment was concluded on day 14 of L-NAME treatment. […] (Hou J et al. J. Clin. Invest 1995 96:2469-2477. […] This lower dose induced lesions in stroke-prone spontaneously hypertensive rats. (Rocha R et al. […] Dexamethasone, aldosterone and L-NAME were purchased from Sigma Chemical Co. (St. Louis, Mo.). […] Surgical Procedure. […] Bilateral adrenalectomy was performed using a dorsolumbar approach, making separate incisions on each side. […] No post operative deaths occurred. Assays and Analyses. Systolic blood pressure was measured in awake animals by tail-cuff plethysmography using a Natsume KN-210 manometer and tachometer (Peninsula Laboratories Inc, Belmont, Calif.). Rats were warmed at 37° C. for 10 minutes and allowed to rest quietly in a Lucite chamber before measurement of blood pressure. Urinary protein concentration was determined in urine collected on the last day of the experiment using the sulfosalicylic acid turbidity method. […] Plasma aldosterone concentration was determined using a standard radioimmunoassay-kit from Diagnostic Products Co. (Los Angeles, Calif.). Plasma renin activity (“PRA”) was determined by radioimmunoassay detection of generated angiotensin I (DiaSorin Inc., Stillwater, Minn.). Histology. Hearts were stained with collagen specific dye Sirius red for determination of fibrosis as reported elsewhere. (Young M et al. Am. J. Physiol 1995 269:[…]-[…]). Interstitial collagen was determined using an automated image analyzer. The hearts were also stained with hematoxylin and eosin for light microscopic analysis. Two or three slices of different sections of the heart containing both right and left ventricle were analyzed from each animal. […] Glomerular damage, when present, was characterized as the presence of either segmental or global sclerosis with ischemic or thrombotic changes. Renal arterial and arteriolar damage was categorized as the presence of fibrinoid necrosis of the vascular wall. The renal arterial and arteriolar profiles presenting damage were counted and the number of injured vessels per section was divided by the number of glomeruli in the same section in order to normalize for the amount of tissue examined. […] Statistical analysis. Data were tested for normality using the Kolmogorov-Smirnov test. Systolic blood pressure was analyzed using repeated measures-analysis of variance for time and treatment group. One-way analysis of variance was used for normally distributed data with one grouping variable. Post-hoc analysis was performed using Newman Keuls multiple-comparison test. Data that were not normally distributed were analyzed with the Kruskal-Wallis test. […]

Series [5] relates to saline-loaded adrenalectomized rats treated with aldosterone. Briefly: Antimineralocorticoid activity in saline-loaded adrenalectomized rats treated with aldosterone (Example A-2). The class given is in vivo. The method, then:
Methods: The antimineralocorticoid pharmacological activity was determined in saline-loaded adrenalectomized rats treated with aldosterone. […] Urinary sodium, potassium and water excretion were measured.

Series [6] has as its system older patients with systolic hypertension and/or widened pulse pressure. Put plainly: Eplerenone versus amlodipine in systolic hypertension in older people, 24 weeks (Examples A-19, D-8). It counts as in vivo, human. From the text: At Week 10 or thereafter, if SBP is =170 mmHg on two consecutive visits, one to three days apart, and the patient is on the maximum dose of study drug, he/she must be withdrawn. Patients will receive double-blind study medication for a total of 24 weeks. Table A-19A illustrates the above-described dosing scheme.
Heart rate, BP, serum potassium levels, concomitant medications and adverse events will be assessed at each visit. […] Special studies: collagen markers [aminoterminal propeptide of type III procollagen (PIIINP), 7S domain of type IV collagen (7SIVC), and type I collagen telopeptide (ICTP)], plasma […] (PAI-1), tissue plasminogen activator (t-PA), microalbuminuria, and at selected sites, Ambulatory Blood Pressure Monitoring (ABPM) and arterial compliance will be done at Weeks 0, 14, and 24 or at Final Visit. Quality of Life Questionnaires will be done at visit 2A (beginning of single blind) and Weeks 0, 14, and 24 or at Final Visit. DNA genotyping will be performed at baseline.
In older patients, elevated systolic BP and wide pulse pressure predict cardiovascular risk better than diastolic BP. Reduced vascular compliance and intraglomerular hypertension typically accompany isolated systolic hypertension in older people.
Changes in arterial compliance, measured by pulse-wave velocity, microalbuminuria, and adverse effects (AEs) were assessed at baseline and after 24 weeks of therapy.

In a further series the test system is hypertensive patients. Put plainly: Eplerenone vs. amlodipine, ambulatory blood pressure monitoring, 16 weeks (Example D-12). The class given is in vivo, human. The settings on record: in vivo. From the text: This was a multicenter, randomized, double-blind, active-controlled, placebo run-in, parallel group study. […] If symptomatic hypotension occurred at Week 2 or Weeks 4, 6, 8, or 12 and the patient was on the lowest dose level (Dose Level 1), the patient was to be withdrawn. Study assessments at protocol-specified timepoints included BP, heart rate, ABPM, Holter recording, clinical laboratory analyses including serum potassium levels, concomitant medications. Throughout the study, safety was assessed by routine clinical laboratory analyses, vital signs, physical examinations, 12-lead ECG, and monitoring of adverse events.

Series [7] can be described thus: Dissolution rate and physical stability of solid state forms of eplerenone. The class given is physicochemical. To be noted: temperatures below the enantiotropic transition temperature, versus Form H.
[8] abbreviates: after 24 weeks, titration-to-effect.

With `C[C@]12CCC(=O)C=C1CC[C@@H]1[C@@H]2[C@@H](O)C[C@]2(C=O)[C@@H](C(=O)CO)CC[C@@H]12` [Aldosterone], in series [1] (aldosterone & vehicle), the “HR: Heart Rate” value is reported as 346 ± 6 beats/min and the “SAP: Systolic arterial pressure” value is recorded as 202 ± 7 mmHg. For the same compound, the “Mean Na/K” value in series [2] (Table A-3A, aldosterone alone) worked out at 1.68. The “Mean Na/K” value in series [2] (Table A-3B, aldosterone alone) is on record as 1.21. For the same compound, in series [3], the “Na/K Ratio” value turned out to be 0.09, the “Urinary Excretion Potassium” value is recorded as 10.5 mmol/2 h and the “Urinary Excretion Sodium” value stood at 1.0 mmol/2 h. In addition, in series [4] (end of experiment (day 14)), the HW is reported as 951 ± 16 mg and the “HW/BW (cardiac hypertrophy index)” value was 3.57 ± .06 mg/g. The same compound showed an SBP in series [4] (end of experiment) of 192 ± 7 mmHg. The “Urinary Na/K ± SEM” value in series [5] (aldosterone alone) is 1.68 ± 0.04.

`CCOC(=O)C1=C(COCCN)NC(C)=C(C(=O)OC)C1c1ccccc1Cl` (centres unmarked) [Amlodipine, reference compound]: the “Edema rates (%)” value in series [6] (24-week study) was 25.2%. Further, in series [6] (24 weeks), the peripheral edema frequency is recorded as 25.2%; the “reduction in pulse pressure” value is −13.4 mmHg; the “symptoms with significant and clinically meaningful worsening in distress from Baseline (QoL)” value worked out at 21 symptoms. Besides, the “reduction in SBP” value in series [6] (24 weeks, EPL 50-200 mg QD, AML 2.5-10 mg QD) is −20.1 mmHg. Besides, in series [6] (setting [8]), the “Pulse Pressure (change)” value was −13.4 ± 0.95 mmHg and the “Systolic BP (change)” value is −20.1 ± 1.13 mmHg. Further, in series [6] (in vivo), the safety and tolerability entry is “safe and well tolerated”. For the same compound, the “Δ microalbuminuria (%)” value in series [6] (only for patients with baseline microalbuminuria (>30 mg/g), 24 weeks) is reported as −10.4%. The “reduction in UACR” value in series [6] (patients with baseline microalbuminuria (>30 mg/g)) is −3.3%. For the same compound, in the series with hypertensive patients, the “incidence of peripheral edema” value is on record as “greater incidence of peripheral edema”; the safety and tolerability entry was “safe and well tolerated”.

Consider `COC(=O)[C@@H]1CC2=CC(=O)CC[C@]2(C)[C@@]23O[C@@H]2C[C@@]2(C)[C@@H](CC[C@@]24CCC(=O)O4)[C@H]13` [Form L], for which the physical stability result in series [7] is on record as “greater physical stability”.

Turning to `CC(=O)S[C@@H]1CC2=CC(=O)CC[C@]2(C)[C@H]2CC[C@@]3(C)[C@@H](CC[C@@]34CCC(=O)O4)[C@H]12` [Spironolactone], the “HR: Heart Rate” value in series [1] (aldosterone & antagonist 100 mg/kg s.c.) stood at 338 ± 4 beats/min; in series [1] (aldosterone & antagonist 200 mg/kg s.c.) it was 336 ± 7 beats/min. In addition, the “Mean Na/K” value in series [2] (Table A-3A, aldosterone + antagonist 10 mg/100 g rat) was determined as 1.56; in series [2] (Table A-3A, aldosterone + antagonist 30 mg/100 g rat) it was 3.02; in series [2] (Table A-3A, aldosterone + antagonist 100 mg/100 g rat), 4.02. Further, in series [3], the “Na/K Ratio” value is listed as 1.7. Besides, in series [3], the “Urinary Excretion Potassium” value is 7.4 ± 0.7 mmol/2 h. The “Urinary Excretion Sodium” value in series [3] is recorded as 12.6 ± 2 mmol/2 h. The “Urinary Na/K ± SEM” value in series [5] (aldosterone & antagonist 1 mg/kg by gavage) is 2.26 ± 0.25; in series [5] (aldosterone & antagonist 3 mg/kg by gavage) it was 2.90 ± 0.25; in series [5] (aldosterone & antagonist 10 mg/kg by gavage) it was 4.38 ± 0.26.
